{"source": "patent US7026281B1", "about": "“Antagonistic analogs of GH-RH inhibiting IGF-I and -II” (The Administrators of the Tulane Educational Fund, priority 1998, dated 2006)", "key": {"[1]": {"system": "hGH-RH(1–29)NH2 induced GH release", "assay": "Inhibition of GH release in superfused rat pituitary system", "format": "cell-based", "details": "antagonist 30 nM; for Inhibition of GH release (%) 30 min: 1 nM hGH-RH(1–29)NH2 30 min later; for Inhibition of GH release (%) 60 min: 1 nM hGH-RH(1–29)NH2 60 min later; for Inhibition of GH release (%) 90 min: 1 nM hGH-RH(1–29)NH2 90 min later; for Inhibition of GH release (%) 120 min: 1 nM hGH-RH(1–29)NH2 120 min later; for Inhibition of GH release (%) 0 min: 1 nM hGH-RH(1–29)NH2 at 0 min", "how_it_was_run": "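Superfused rat pituitary cells preincubated 9 min with peptide, then challenged for 3 min with 1 nM hGH-RH(1–29)NH2 at 0, 30, 60, 90 and 120 min. Rat GH measured by double-antibody RIA; net integral GH responses expressed as percent of the original 1 nM GH-RH-induced response.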"}, "[2]": {"target": "T1, rat pituitary GH-RH receptors (Rattus norvegicus, UniProt Q02644)", "T1 construct": "from tissue; host or cells: anterior pituitary of male Sprague-Dawley rats, crude membrane homogenates", "T1 sequence (Q02644 23-464)": "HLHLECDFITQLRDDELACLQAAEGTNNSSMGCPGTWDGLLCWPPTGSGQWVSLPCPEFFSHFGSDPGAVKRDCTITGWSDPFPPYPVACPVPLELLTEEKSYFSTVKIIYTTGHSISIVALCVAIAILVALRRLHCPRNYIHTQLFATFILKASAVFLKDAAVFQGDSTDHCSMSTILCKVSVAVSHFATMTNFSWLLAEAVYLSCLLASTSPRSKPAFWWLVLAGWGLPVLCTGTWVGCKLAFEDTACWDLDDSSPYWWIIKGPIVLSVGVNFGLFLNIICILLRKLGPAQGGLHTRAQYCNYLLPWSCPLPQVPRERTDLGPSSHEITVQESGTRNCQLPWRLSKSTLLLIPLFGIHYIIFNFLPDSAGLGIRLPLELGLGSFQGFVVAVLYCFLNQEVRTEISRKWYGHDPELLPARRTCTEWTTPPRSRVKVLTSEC", "assay": "GH-RH radioreceptor binding assay, rat anterior pituitary membrane homogenates", "details": "for Ki: competition with [His1,125I-Tyr10,Nle27]hGH-RH(1–32)NH2; for R.A. (relative affinity compared to Standard antagonist): ratio of Ki values", "how_it_was_run": "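Antagonists competed with [His^1,^125I-Tyr^10,Nle^27]hGH-RH(1–32)NH2 for binding to crude anterior pituitary membranes from male Sprague-Dawley rats, with γ-counting of the pellet. Ki came from Munson–Rodbard analysis. Relative affinity is the Ki of the test antagonist divided by the Ki of standard [Ac-Tyr^1,D-Arg^2]hGH-RH(1–29)NH2.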"}, "[3]": {"system": "GH release stimulated by hGH-RH(1–29)NH2", "assay": "In vivo inhibition of serum GH response in rats", "design": "species or system rat", "details": "for Inhibition of the GH release stimulated by hGH-RH(1–29)NH2 (in words): 80 μg/kg i.v., rats", "how_it_was_run": "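Male Sprague-Dawley rats (200–250 g) under Nembutal received antagonist at 80 μg/kg i.v., then GH-RH(1–29)NH2 at 3 μg/kg after 5, 15, 30 or 60 min; controls received vehicle (5.5% mannitol). GH was measured by RIA before antagonist and 5 min after GH-RH, and inhibition was calculated as […].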"}, "[4]": {"system": "HT-29 human colon cancers", "assay": "HT-29 human colon cancer xenografts in nude mice", "format": "in vivo", "details": "20 μg daily sc., 6 weeks; for Final tumor volume (mm^3) / Tumor weight: nude mice", "procedure": "HT-29 human colon cancers were transplanted sc. into male nude mice. 19 days after transplantation, the mice were divided into groups of 10 animals each, and the treatment was started. The mice received single daily injections of various GH-RH antagonists sc. at 20 μg dose per day for 6 weeks. Tumors were measured regularly, and tumor volume was calculated. The mice were sacrificed at the end of experiment and tumor weights were measured."}, "[5]": {"system": "mammary (MDA-MB-468, ZR-75-1), prostatic (PC-3 and DU-145), and pancreatic (MiaPaCa-2, SW-1990 and Capan-2) cancer cell lines", "details": "MDA-MB-468, ZR-75-1, PC-3, DU-145, MiaPaCa-2, SW-1990, Capan-2; cited from earlier work"}, "IGF-II": {"system": "IGF-II", "details": "same cancer cell lines in vitro; cited from earlier work"}, "[6]": {"details": "antagonist 80 μg/kg i.v. 5 min before GH-RH"}, "[7]": {"details": "antagonist 80 μg/kg i.v. 15 min before GH-RH"}, "[8]": {"details": "antagonist 80 μg/kg i.v. 15 min before GH-RH 3 μg/kg"}, "[9]": {"details": "antagonist 80 μg/kg i.v. 30 min before GH-RH"}, "[10]": {"details": "antagonist 80 μg/kg i.v. 30 min before GH-RH 3 μg/kg"}, "[11]": {"details": "antagonist 80 μg/kg i.v. 60 min before GH-RH"}, "[12]": {"details": "antagonist 80 μg/kg i.v. 60 min before GH-RH 3 μg/kg"}, "[13]": {"details": "rGH=GHblood1/GHblood0, antagonist 80 μg/kg i.v. 5 min before GH-RH 3 μg/kg"}}, "note": "Marks after values point to notes of the source that are not given here. Square brackets hold non-standard residues; d marks the D form. Peptide text beside a SMILES is read from it. * marks the point of attachment. Phe(4-Cl) = N[C@@H](Cc1ccc(Cl)cc1)C(=O)O; hArg = N=C(N)NCCCC[C@H](N)C(=O)O; Nle = CCCC[C@H](N)C(=O)O; Abu = CC[C@H](N)C(=O)O; PhAc = O=C(Cc1ccccc1)*"}
{"molecule": "CCCC[C@H](NC(=O)[C@@H](NC(=O)[C@H](CC(=O)O)NC(=O)[C@H](CCC(N)=O)NC(=O)[C@H](CC(C)C)NC(=O)[C@H](CC(C)C)NC(=O)[C@H](CCCCN)NC(=O)[C@H](CCCNC(=N)N)NC(=O)[C@H](C)NC(=O)[C@H](CO)NC(=O)[C@H](CC(C)C)NC(=O)[C@H](CCC(N)=O)NC(=O)[C@H](CC)NC(=O)[C@H](CC(C)C)NC(=O)[C@@H](NC(=O)[C@H](CCCCN)NC(=O)[C@H](CCCNC(=N)N)NC(=O)[C@H](Cc1ccc(O)cc1)NC(=O)[C@H](CCCNC(=N)N)NC(=O)[C@H](CC(N)=O)NC(=O)[C@@H](NC(=O)[C@H](Cc1ccc(Cl)cc1)NC(=O)[C@@H](NC(=O)[C@H](C)NC(=O)[C@H](CC(=O)O)NC(=O)[C@@H](CCCNC(=N)N)NC(=O)[C@H](Cc1ccc(O)cc1)NC(=O)Cc1ccccc1)[C@@H](C)CC)[C@@H](C)O)C(C)C)[C@@H](C)CC)C(=O)N[C@@H](CO)C(=O)N[C@H](CCCNC(=N)N)C(N)=O", "note": "[Peptide 9, [PhAc^0, D-Arg^2, Phe(pCl)^6, Arg^9, Abu^15, Nle^27, D-Arg^29]hGH-RH(1–29)NH2] (PhAc-Y[dR]DAI[Phe(4-Cl)]TNRYRKVL[Abu]QLSARKLLQDI[Nle]S[dR]-NH2)", "values": [{"measurement": "Inhibition of GH release (%) 30 min", "setting": "[1]", "result": 87, "unit": "%"}, {"measurement": "Inhibition of GH release (%) 60 min", "setting": "[1]", "result": 79, "unit": "%"}, {"measurement": "Inhibition of GH release (%) 90 min", "setting": "[1]", "result": 72, "unit": "%"}, {"measurement": "Inhibition of GH release (%) 120 min", "setting": "[1]", "result": 59, "unit": "%"}, {"measurement": "Inhibition of GH release (%) 0 min", "setting": "[1]", "result": 91, "unit": "%"}, {"measurement": "Ki", "setting": "[2]", "result": 0.058, "unit": "nM"}, {"measurement": "R.A. (relative affinity compared to Standard antagonist)", "setting": "[2]", "result": 51}, {"measurement": "Inhibition of the GH release stimulated by hGH-RH(1–29)NH2 (in words)", "setting": "[3]", "result": "strong and long-lasting inhibition"}, {"measurement": "Relative inhibition % of GH response", "setting": "[3]; [6]", "result": 75, "unit": "%"}, {"measurement": "Relative inhibition % of GH response", "setting": "[3]; [7]", "result": 59, "unit": "%"}, {"measurement": "GH response mean ± S.E.M.", "setting": "[3]; [8]", "result": "3.85 ± 0.50"}, {"measurement": "Relative inhibition % of GH response", "setting": "[3]; [9]", "result": 67, "unit": "%"}, {"measurement": "GH response mean ± S.E.M.", "setting": "[3]; [10]", "result": "3.34 ± 0.30"}, {"measurement": "Relative inhibition % of GH response", "setting": "[3]; [11]", "result": 10, "unit": "%"}, {"measurement": "GH response mean ± S.E.M.", "setting": "[3]; [12]", "result": "7.32 ± 1.16"}, {"measurement": "GH response mean ± S.E.M.", "setting": "[3]; [13]", "result": "2.75 ± 0.75"}, {"measurement": "Inhibitory effect on HT-29 human colon cancers (in words)", "setting": "[4]", "result": "smaller but still significant inhibition"}, {"measurement": "Final tumor volume (mm^3)", "setting": "[4]", "result": "1194 ± 506* mm^3"}, {"measurement": "Tumor weight", "setting": "[4]", "result": "1383 ± 576", "unit": "mg"}]}
{"molecule": "CCCC[C@H](NC(=O)[C@@H](NC(=O)[C@H](CC(=O)O)NC(=O)[C@H](CCC(N)=O)NC(=O)[C@H](CC(C)C)NC(=O)[C@H](CC(C)C)NC(=O)[C@H](CCCCN)NC(=O)[C@H](CCCNC(=N)N)NC(=O)[C@H](C)NC(=O)[C@H](CO)NC(=O)[C@H](CC(C)C)NC(=O)[C@H](CCC(N)=O)NC(=O)[C@H](CC)NC(=O)[C@H](CC(C)C)NC(=O)[C@@H](NC(=O)[C@H](CCCCN)NC(=O)[C@H](CCCNC(=N)N)NC(=O)[C@H](Cc1ccc(O)cc1)NC(=O)[C@H](CO)NC(=O)[C@H](CC(N)=O)NC(=O)[C@@H](NC(=O)[C@H](Cc1ccc(Cl)cc1)NC(=O)[C@@H](NC(=O)[C@H](C)NC(=O)[C@H](CC(=O)O)NC(=O)[C@@H](CCCNC(=N)N)NC(=O)[C@H](Cc1ccc(O)cc1)NC(=O)Cc1ccccc1)[C@@H](C)CC)[C@@H](C)O)C(C)C)[C@@H](C)CC)C(=O)N[C@H](CCCNC(=N)N)C(=O)N[C@@H](CCCCNC(=N)N)C(N)=O", "note": "[Peptide 11, [PhAc^0, D-Arg^2, Phe(pCl)^6, Abu^15, Nle^27, D-Arg^28, Har^29]hGH-RH(1–29)NH2] (PhAc-Y[dR]DAI[Phe(4-Cl)]TNSYRKVL[Abu]QLSARKLLQDI[Nle][dR][hArg]-NH2)", "values": [{"measurement": "Inhibition of GH release (%) 30 min", "setting": "[1]", "result": 89, "unit": "%"}, {"measurement": "Inhibition of GH release (%) 60 min", "setting": "[1]", "result": 80, "unit": "%"}, {"measurement": "Inhibition of GH release (%) 90 min", "setting": "[1]", "result": 56, "unit": "%"}, {"measurement": "Inhibition of GH release (%) 120 min", "setting": "[1]", "result": 42, "unit": "%"}, {"measurement": "Inhibition of GH release (%) 0 min", "setting": "[1]", "result": 96, "unit": "%"}, {"measurement": "Ki", "setting": "[2]", "result": 0.071, "unit": "nM"}, {"measurement": "R.A. (relative affinity compared to Standard antagonist)", "setting": "[2]", "result": 41}, {"measurement": "Inhibition of the GH release stimulated by hGH-RH(1–29)NH2 (in words)", "setting": "[3]", "result": "strong and long-lasting inhibition"}, {"measurement": "Relative inhibition % of GH response", "setting": "[3]; [6]", "result": 84, "unit": "%"}, {"measurement": "Relative inhibition % of GH response", "setting": "[3]; [7]", "result": 50, "unit": "%"}, {"measurement": "GH response mean ± S.E.M.", "setting": "[3]; [8]", "result": "13.64 ± 1.41"}, {"measurement": "Relative inhibition % of GH response", "setting": "[3]; [9]", "result": 40, "unit": "%"}, {"measurement": "GH response mean ± S.E.M.", "setting": "[3]; [10]", "result": "16.04 ± 4.36"}, {"measurement": "Relative inhibition % of GH response", "setting": "[3]; [11]", "result": 38, "unit": "%"}, {"measurement": "GH response mean ± S.E.M.", "setting": "[3]; [12]", "result": "16.61 ± 6.02"}, {"measurement": "GH response mean ± S.E.M.", "setting": "[3]; [13]", "result": "5.15 ± 1.11"}, {"measurement": "Inhibitory effect on HT-29 human colon cancers (in words)", "setting": "[4]", "result": "only little nonsignificant effect"}, {"measurement": "Final tumor volume (mm^3)", "setting": "[4]", "result": "1663 ± 610", "unit": "mm^3"}, {"measurement": "Tumor weight", "setting": "[4]", "result": "1849 ± 681", "unit": "mg"}]}
{"molecule": "[Ibu^0, Tyr^1, D-Arg^2, Abu^15, Nle^27]hGH-RH(1–28) Agm [MZ-4-71, reference compound]", "values": [{"measurement": "Inhibitory effect on HT-29 human colon cancers (in words)", "setting": "[4]", "result": "only little nonsignificant effect"}, {"measurement": "Final tumor volume (mm^3)", "setting": "[4]", "result": "1953 ± 400", "unit": "mm^3"}, {"measurement": "Tumor weight", "setting": "[4]", "result": "2189 ± 458", "unit": "mg"}, {"measurement": "Rate of proliferation of cancer cell lines in vitro", "setting": "[5]", "result": "significantly inhibited"}, {"measurement": "Expression of IGF-II mRNA in the cells and concentration of IGF-II secreted into the culture medium", "setting": "IGF-II", "result": "reduced"}]}
